The results in this text go back to US12338229B2, “Small molecule stimulators of steroid receptor coactivator-3 and methods of their use as cardioprotective and/or vascular regenerative agents” (BAYLOR COLLEGE OF MEDICINE, priority 2018, dated 2025).

SMILES strings stand for the structures.

Data set [1] has as its system SRC-1, SRC-2 or SRC-3 fused with the DNA binding domain of Gal4. The experiment in a line: Gal4 luciferase reporter (pG5-luc / pBIND-SRC) in HeLa cells. In kind it is cell-based. Particulars: pG5-luc + pBIND-SRC-1, -2 or -3. The text has this:
The compounds described herein stimulate SRC intrinsic transcriptional activity. HeLa cells transfected with a Gal4 responsive luciferase reporter (pG5-luc) and a construct encoding SRC-1, SRC-2 or SRC-3 fused with the DNA binding domain of Gal4 (pBIND-SRC-1, pBIND-SRC-2 or pBIND-SRC-3) were exposed to treatments with compounds as described herein, including MCB-613, Compound 10-1, and Compound 10-2.

Data set [2] deals with GAL4-DBD full length SRC-1, -2 or -3 fusion. The data set can be described thus: GAL4 luciferase reporter assay in cardiac fibroblasts. In kind it is cell-based, mice. Particulars: 6 μM, SRC-3 vs SRC-1 and SRC-2. The protocol: Reporter assay. Cardiac fibroblasts were plated in six well plates and transfected with a GAL4 responsive luciferase reporter (pG5-luc) and expression vectors for a GAL4 DNA binding domain (GAL4-DBD) full length SRC-1, -2 or -3 fusion construct (pBIND-SRC-1, pBIND-SRC-2 or pBIND-SRC-3) or pBIND control using Lipofectamine 3000 (Invitrogen; Carlsbad, CA). Twenty-four (24) hours post transfection, cells were treated with 6 μM MCB-613 or dimethyl sulfoxide (DMSO) and incubated overnight. Post treatment cells were lysed and total protein was isolated using the Promega luciferase assay system (Promega Life Sciences; Madison, WI). Protein concentration was measured using a Bradford assay (Bio-Rad Laboratories; Hercules, CA). Relative light units were measured and normalized to total protein concentration.

For data set [3], the system named is chorioallantoic membrane (CAM) of chicken eggs. The data set can be described thus: Chick egg CAM angiogenesis assay, topical drug. Type of data set: in vivo. The conditions noted are these: 0.6 μM applied directly to chick eggs. The protocol: Angiogenesis assay for small molecule stimulator treatments. Five to seven day old specific-pathogen-free (SPF) certified fertilized chicken eggs (white leghorn) were used to access the chorioallantoic membrane (CAM). The total vessel area on the CAM was measured using images obtained prior to application of the drug. MCB-613 (100 μL) at a concentration of 0.6 μM was topically applied onto the surface of the CAM. The vessel area on the CAM was monitored on a daily basis following daily application of the drug. Vehicle controls were maintained throughout the experiment. Treatments were continued for four days at the end of which an image thresholding method (ImageJ) was used to quantify total vessel area on the CAM. Percent growth in vessel area was compared for control and treated eggs. n=6 eggs per condition. This experiment was repeated three times.

For data set [4] the test system is unchanged. The data set can be described thus: CAM angiogenesis assay with drug treated mouse embryonic fibroblasts. In kind it is in vivo. The conditions noted are these: MEFs pre-treated with 0.6 μM for 24 hours. The protocol:
Angiogenesis Assay with drug treated mouse embryonic fibroblasts (MEFs). Five to seven day old SPF certified fertilized chicken eggs (white leghorn) were used to access the chorioallantoic membrane (CAM). Mouse embryonic fibroblasts (MEFs) were treated with 0.6 μM MCB-613 for 24 hours. Post treatment, two million MEFs were suspended in 60 μL of PBS containing magnesium and calcium and 40 μL of Matrigel (2M/egg) (Corning Inc.; Corning, NY). The MEFs were then mixed well by pipetting and transferred to the surface of the CAM. The vessel area on the CAM was monitored on a daily basis. Vehicle controls were maintained throughout the experiment. MEFs were allowed to grow on the CAM surface for four days at the end of which an image thresholding method (ImageJ) was used to quantify total vessel area on the CAM. Percent growth in vessel area was then compared across control and treated eggs (MEF treated versus untreated). n=6 eggs per condition.

Data set [5] is described as follows: Toxicity profile in vitro and in vivo.
The subject of data set [6] is mouse hearts after myocardial infarction. The experiment in a line: Metabolomic profiling of hearts post-MI. In kind it is in vivo, mice. On the procedure:
Metabolomic profiling. Hearts from 4 control and 4 MCB-613-treated mice were isolated 24 hours post-MI, perfused with 10 mM KCl, snap frozen in liquid nitrogen and stored at −80° C. 10 mgs of tissue was analyzed for fatty acids and carnitines normalized to 3 normal liver control samples. Fatty acids were normalized by Internal Standard L-Tryptophan and carnitines normalized by Internal Standard L-Zeatine.

For the next data set, the system named is bone marrow granulocytes. The experiment in a line: qPCR of bone marrow granulocytes post-MI. In kind it is in vivo, mice. The conditions noted are these: bone marrow granulocytes 24 hours post-MI. On the procedure: RNA isolation and qPCR. Total RNA was isolated from cells using the Qiagen RNA isolation kit. cDNA was prepared with the VILO master mix reagent. qPCR analysis was carried out using the Taqman kit with primers for Tlr7, Lcn2 and 18s.
Granulocyte isolation. Bone marrow cells were isolated from the rear legs of mice treated with control or MCB-613 for 24 hours. Rear legs were removed and placed in ice-cold Hanks balanced salt solution (HBSS) (without Ca/Mg) plus 2% FBS. Both ends of the bone were cut and the bone marrow was flushed with ice cold HBSS with 2% FBS using a 26G needle. Clumps were broken up with an 18G needle and filtered through a 70 μm filter and centrifuged at 400 g for 10 min at 4° C. The pellet was suspended in RBC lysis buffer (BD Biosciences Pharmigen; San Diego, CA) and incubated at room temperature for two minutes. HBSS buffer (8 mL) was added and spun at 400 g for 10 mins at 4° C. Viable cells were counted by trypan blue exclusion and bone marrow granulocytes were isolated using a mouse Neutrophil Isolation Kit from Miltenyi Biotec (Bergisch Gladbach, Germany).

Data set [7] has as its system mice after myocardial infarction. The experiment in a line: Myocardial infarction model, permanent LAD ligation (echocardiography, histology, immunostaining, PET, EM). Type of data set: in vivo, ICR (CD1) mice. The conditions noted are these: repeat injections three days at weeks 8 and 16.

As to `CCC1C/C(=C\c2cccnc2)C(=O)/C(=C/c2cccnc2)C1` (stereo not shown) [MCB-613], in data set [1], the “intrinsic transcriptional activity of SRCs (luciferase)” value is “selectively stimulates the intrinsic transcriptional activity of SRCs”. The “SRC activation (luciferase, RLU)” value in data set [2] is “induced in response to MCB-613 to a greater extent than for SRC-1 and SRC-2”. Further, the “angiogenesis (vessel area on CAM)” value in data set [3] was “stimulated angiogenesis in vivo”; in data set [4], “promoted robust angiogenesis”. Further, the toxicity profile result in data set [5] was “low toxicity profile in vitro and in vivo”. The cardioprotective carnitine metabolites entry in data set [6] (mouse hearts 24 hours post-MI) is listed as “increases cardioprotective carnitine metabolites”. Besides, in data set [6] (mouse hearts 24 hours post-MI), the “β-oxidation of long-chain fatty acids” value is listed as “increases β-oxidation of long-chain fatty acids”. For the same compound, the methylglutaryl carnitine entry in data set [6] (mouse hearts post-MI) is on record as “decreases methylglutaryl carnitine”. For the same compound, in the data set with bone marrow granulocytes, the “Tlr7 and Lcn2 mRNA expression in granulocytes” value was “Increased expression of Tlr7 and Lcn2”. Further, the “effect of repeat injections on ejection fraction” value in data set [7] is “did not alter ejection fractions”.
